Here are results for two compounds from patent publication US20160199326A1, “USE OF TRIFLUOROACETIC ACID AS KERATOLYTIC AGENT TO TREAT HYPERKERATOTIC SKIN LESIONS” (POLICHEM S.A., priority 2013, published 2016).

Data set [1] has as its system stratum corneum of hairless rats. Description: Exfoliating activity in vivo after topical application on the back of hairless rats, histological evaluation. On the set-up: species or system rat. The settings on record: ten hairless rats, 10% CaTFA gel topical two times a day for ten days. On the procedure: The formulations used had the following composition: Medicated formulation (D) CaTFA 10.00 g, Xanthan gum 2.00 g, Water q.s. to 100.00 g. Vehicle (V): Xanthan gum 2.00 g, Water q.s. to 100.00 g.
The experiments were carried out on 4 weeks old hairless male rats (HsdHanTM:RNU—Foxnl rnu, Harlan Italy srl, Correzzana, Italy). The back of ten rats was divided in two parts (section area: 2.5×3.0 cm) for topical application of the test formulations. A volume of 200 μl of the medicated formulation or the vehicle was applied two times a day for ten days. Fifteen hours after the last administration, the animals were sacrificed by cervical dislocation and the portion of skin submitted to the treatment was excised, carefully rinsed to remove the remaining formulation and submitted to histological evaluation. A sample of untreated skin of each animal was used as control (C). The histological evaluation was done as follows: the skin samples were fixed in 10% buffered formalin solution, dehydrated and embedded in JB-4 plastic resin. Coronal sections were cut by a microtome (Reichert-Jung) and mounted onto gelatin coated slides. Sections were stained with methylene blue/toluidine blue for microscopic examination to verify the absence of stratum corneum and the condition of the other parts of the skin. The specimens were assessed under Leitz Diaplan microscope.

The test system of a further data set is tumor growth. The settings on record: animal experimental models; cited from earlier work.
Another data set relates to solid tumor cells. The settings on record: in vitro; cited from earlier work.
The next data set relates to angiogenesis. The settings on record: cited from earlier work.
The conditions of data set [2]: known; cited from earlier work.

As to `O=C([O-])C(F)(F)F.O=C([O-])C(F)(F)F.[Ca+2]` [Calcium trifluoroacetate], the “effective as keratolytic agent, share of treated animals” value in data set [1] came out at 70%. Besides, the tumor growth entry in the data set with tumor growth is listed as “inhibit tumor growth”. The cytotoxic activity entry with solid tumor cells is “in vitro cytotoxic activity on solid tumor cells”. For the same compound, the antiangiogenetic activity entry with angiogenesis is “relevant antiangiogenetic activity”.
For `O=C([O-])C(F)(F)F.[Na+]` [NaTFA, Sodium Trifluoroacetate], the toxicity entry in data set [2] is recorded as “devoid of significant toxicity”.
